# Measured values as given in BindingDB's records for doi:10.1016/j.bmcl.2004.02.020 (Pfizer, 2004).
# Biological target: T1, C-C chemokine receptor type 1 (Homo sapiens, UniProt P32246)
# T1 sequence (P32246 whole entry): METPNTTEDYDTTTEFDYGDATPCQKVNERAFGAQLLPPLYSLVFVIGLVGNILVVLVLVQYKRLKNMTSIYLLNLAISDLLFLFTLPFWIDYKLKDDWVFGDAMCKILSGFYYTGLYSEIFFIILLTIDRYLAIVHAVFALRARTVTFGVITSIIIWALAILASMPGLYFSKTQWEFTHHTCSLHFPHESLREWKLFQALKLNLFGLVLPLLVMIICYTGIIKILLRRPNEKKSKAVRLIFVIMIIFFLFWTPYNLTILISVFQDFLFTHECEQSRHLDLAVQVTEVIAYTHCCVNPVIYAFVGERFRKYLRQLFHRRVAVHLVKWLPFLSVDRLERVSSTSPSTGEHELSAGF
# Experiment: Compound was tested for inhibition of CCL3 binding to chemokine receptor-1; inactive at a concentration of 32 uM
row,Compound,IC50
1,CNC(=O)[C@H](CC(C)C)C[C@@H](O)[C@H](CC1CCCCC1)NC(=O)c1cnc2ccccc2c1,< 50 µM
2,CNC(=O)[C@@H](CC(C)C)C[C@H](O)[C@@H](CC1CCCCC1)NC(=O)c1cnc2ccccc2c1,< 50 µM
3,CNC(=O)[C@@H](CC(C)C)C[C@@H](O)[C@H](CC1CCCCC1)NC(=O)c1cnc2ccccc2c1,< 50 µM
4,CNC(=O)CC[C@H](O)[C@H](CC1CCCCC1)NC(=O)c1cnc2ccccc2c1,< 50 µM

# The next lines start with the values.
row,IC50,Compound
1,< 50 µM,CNC(=O)[C@H](CC(C)C)C[C@@H](O)[C@@H](CC1CCCCC1)NC(=O)c1cnc2ccccc2c1
2,< 50 µM,CC[C@H](C)[C@H](NC(=O)c1cnc2ccccc2c1)[C@@H](O)C[C@@H](CC(C)C)C(=O)NC
